In test [1] the test system is testicular steroidogensis. The experiment in a line: Inhibitory activity against testicular steroidogenesis in men in good health, single intranasal administration. It counts as in vivo. As to conditions: for seric steroid/testosterone level on the fourth day after administration: fourth day (until 6th day). Here is the method:
The inhibitory activity of [D Ser (tbu)^6 des GlyNH2^10 ] LH-RH ethylamide (described in German application Ser. No. 2,438,350) against testicular steroidogensis in men in good health was determined on men in good health aged 30 to 40 years. The said product was administered intranasally at a dose of 500 μg in a few drops of distilled water at 8 A.M. on the third day of the test. For 2 days prior to the treatment and for 6 days after the treatment, samples of blood were taken daily at 8 A.M., 3 P.M. and 10 P.M. On the day of administration of the LH--RH agonist, blood samples were taken at 11 A.M. and 6 P.M.
The seric concentrations of LH and FSH were measured by radioimmuno-logic dosages with double antibodies and the antibodies for measuring LH and FSH were furnished by the National Pituitary Agency of N.I.H. in Bethesda, Md. The seric concentrations of steroids was measured by radioimmuno-logic dosages in which one ml of serum was extracted with ether and the steroids were separated on a LH-20 column before measuring with radioimmuno-logic dosages. The radioimmuno-logic dosage results were determined by a program derived from model II of Rodbard et al [Second Karolinska Symposium on Research Methods in Reproductive Endrocinology, Diczfalusky Editor, Copenhague (1970), p. 79-103]. The statistical significance was determined by the "multiple level test" of Duncan-Kramer [Kramer, Biometrics, Vol 12 (1956), p. 307]. The results are shown in the graphs on sheet 1 of the Figures filed herewith.

For test [2], the system named is ovarian steroidogenosis. Kind of test: Inhibitory activity on ovarian steroidogenesis in women with normal menstrual cycles. It counts as in vivo. The procedure:
The inhibitory activity of [D Ser (tbu)^6 des GlyNH2^10 ] LH-RH ethylamide on ovarian steroidogenosis in women was determined on 6 women aged 26 to 35 years with normal and regular menstrual cycles and without prior endocrinal or gynecological problems. The study was conducted for 6 consecutive cycles consisting of 2 pretreatment cycles, 2 treatment cycles and 2 post-treatment cycles. Two drops of a solution containing 500 μg of [D Ser (tbu)^6 des GlyNH2^10 ] LH--RH ethylamide were deposited on each nostril at 8 A.M. and 5 P.M. of a day between the 4th and 9th day after the peak of LH-day 0. Daily blood samples were taken between 4 and 6 P.M. to measure seric levels of LH, FSH, progesterone and estradiol which were determined by radioimmuno-logictests with double antibodies. The antibodies to measure LH and FSH were furnished by the National Pituitory Agency of N.I.H. of Bethesda, Md.
Estradiol and progesterone were measured with highly specific antibodies developed against 7-(O-carboxymethyl)-oxime of estradiol and 12-(O-carboxymethyl)-oxime of progesterone, respectively [3H] 17β-estradiol and ^125 I-progesterone-12-[O-carboxymethyl)-oxime]used as tracers. The serum was extracted with benzene and the steroids were separated with a LH-20 column before the determination. The radioimmunological results were exploited by the program derived from model II of Rodbard and Lewald as in Example 1 and the statistical significance was measured by the multiple level test of Ducan-Kramer of Example 1. The results are shown in the graphs of sheets 3 to 5 of the Figures.

The mark [3] stands for this setting: human, single intranasal dose 500 μg.
[4] abbreviates: 500 μg intranasal at 8 A.M. and 5 P.M. of one day in luteal phase, typical subject (sheet 3).

1 compound from patent US4851386A, “Method of treating precocious puberty” (Roussel Uclaf, priority 1979, dated 1989) can be followed below.

Each structure is given as a SMILES string.

For the compound `CCNC(=O)[C@@H]1CCCN1C(=O)[C@H](CCCNC(=N)N)NC(=O)[C@H](CC(C)C)NC(=O)[C@@H](COC(C)(C)C)NC(=O)[C@H](Cc1ccc(O)cc1)NC(=O)[C@H](CO)NC(=O)[C@H](Cc1c[nH]c2ccccc12)NC(=O)[C@H](Cc1c[nH]cn1)NC(=O)[C@@H]1CCC(=O)N1` [[D Ser (tbu)^6 des GlyNH2^10] LH-RH ethylamide], in test [1] (setting [3]), the “duration of the drop of seric levels of testicular steroids (testosterone and precursors)” value is 3 days; the “seric steroid/testosterone level on the fourth day after administration” value is reported as “return to normal levels”. In addition, the “seric steroid/testosterone level on the fourth day after administration” value in test [1] (human, single intranasal dose 500 μg, listed as [D Ser (tbu)^6 des Gly NH2^10 ] LH-RH ethylamide) was “the level returned to normal”. Further, the “overall effect on testicular steroidogenesis” value in test [1] (man, intranasal 500 μg) was “inhibition of testicular steroidogenesis”. Moreover, in test [2] (setting [4]), the “reduction of seric levels of progesterone compared to controls, first cycle of treatment” value worked out at 13% and the “reduction of seric levels of progesterone compared to controls, second cycle of treatment” value worked out at 34%. Moreover, in test [2] (12 cycles), the “progesterone level of post-treatment cycles, pretreatment cycles = 100%” value is given as 99% and the “progesterone level of treatment cycles, pretreatment cycles = 100%” value is listed as 46%. The “level of progesterone reduced by, compared to the controls” value in test [2] (12 cycles, sheet 5) worked out at 46%. The “course of seric progesterone level in the 2 cycles of treatment” value in test [2] (sheet 4, return to normal for the 2 post-treatment cycles) is on record as “accelerated diminution”.
